From US20100331348A1, “TROPANE DERIVATIVES USEFUL AS PESTICIDES” (SYNGENTA CROP PROTECTION, INC., priority 2007, published 2010)
Read-outs that look alike come from different tables or passages of the source.

Tests used:
Aedes aegypti = Aedes aegypti (Yellow fever mosquito) larvae test; format: in vivo; conditions: 48 h
[1] = system: Puccinia recondita f.sp. tritici; assay: Puccinia recondita f.sp. tritici (wheat brown rust) leaf disk assay; format: in vivo; conditions: foliar, 216 h, preventive, nine days after inoculation, read-out: control of fungal infection, Puccinia recondita f.sp. tritici
Pyricularia oryzae = assay: whole plant or invertebrate; format: in vivo; conditions: foliar, 96 h
Plutella xylostella = Plutella xylostella (Diamond back moth) artificial diet test; conditions: 120 h, read-out: control of Plutella xylostella
[2] = system: Erysiphe graminis f.sp. tritici; assay: Erysiphe graminis f.sp. tritici (wheat powdery mildew) leaf disk assay; format: in vivo; conditions: Blumeria graminis, foliar, 96 h, preventive, four days after inoculation, read-out: control of fungal infection, Erysiphe graminis fsp. tritici
Phytophthora infestans = assay: whole plant or invertebrate; format: in vivo; conditions: foliar, 96 h, read-out: control of fungal infection, Phytophthora infestans
[3] = read-out: control of fungal infection, Pyricularia oryzae (at least 60% list)

| SMILES | pest or weed control at 2 ppm (Aedes aegypti) [%] | pest or weed control at 200 ppm [1] [%] | pest or weed control at 200 ppm (Pyricularia oryzae; [3]) [%] | pest or weed control at 200 ppm (Plutella xylostella) [%] | pest or weed control at 200 ppm [2] [%] | pest or weed control at 200 ppm (Phytophthora infestans) [%] | pest or weed control at 200 ppm (Pyricularia oryzae; read-out: control of fungal infection, Pyricularia oryzae (at least 80% list)) [%] |
| --- | --- | --- | --- | --- | --- | --- | --- |
| Fc1cccc(OC2C[C@H]3CC[C@@H](C2)N3c2ncnc3sccc23)c1F (some centres unmarked) [Example 1.24] | ≥ 80 | ≥ 80 | ≥ 60 | ≥ 80 | – | – | – |
| CCc1ncnc(N2[C@@H]3CC[C@H]2CC(Oc2cccc(F)c2F)C3)c1Cl (some centres unmarked) [Example 1.164] | ≥ 80 | ≥ 80 | – | ≥ 80 | ≥ 80 | – | – |
| CCc1ncnc(N2[C@@H]3CC[C@H]2CC(Oc2ccc(OC)cc2C(C)=O)C3)c1Cl (some centres unmarked) [Example 1.211] | – | – | – | – | – | ≥ 80 | – |
| CC(C)c1ccc(OC2C[C@H]3CC[C@@H](C2)N3c2ncnc3sccc23)cc1 (some centres unmarked) [Example 2.17] | – | – | – | ≥ 80 | ≥ 80 | – | – |
| c1ccc2c(c1)[nH]c1cc(OC3C[C@H]4CC[C@@H](C3)N4c3ncnc4sccc34)ccc12 (some centres unmarked) [Example 2.19] | – | – | – | – | ≥ 80 | ≥ 80 | – |
| Cc1ccc(OC2C[C@H]3CC[C@@H](C2)N3c2ncnc3sccc23)cn1 (some centres unmarked) [Example 2.44] | – | – | – | – | ≥ 80 | ≥ 80 | – |
| Cc1nsc(Oc2cccc(OC3C[C@H]4CC[C@@H](C3)N4c3ncnc4scc(C)c34)c2)n1 (some centres unmarked) [Example 2.73] | – | – | – | – | ≥ 80 | ≥ 80 | – |
| CCc1ncnc(N2[C@@H]3CC[C@H]2CC(Oc2ccc(C(C)(C)C)cc2)C3)c1Cl (some centres unmarked) [Example 2.147] | – | – | – | ≥ 80 | – | – | – |
| C#CCOc1ccc(C(C)(C)c2ccc(OC3C[C@H]4CC[C@@H](C3)N4c3ncnc4sccc34)cc2)cc1 (some centres unmarked) [Example 2.225] | – | – | – | ≥ 80 | – | – | – |
| CCc1ncnc(N2C3CCC2CC(=CC(=O)N(C)C)C3)c1Cl [Example 3.3] | – | – | – | – | – | ≥ 80 | – |
| CN(C)C(=O)C=C1CC2CCC(C1)N2c1ncnc2sccc12 [Example 3.25] | – | – | – | – | – | ≥ 80 | – |
| CCc1ncnc(N2[C@@H]3CC[C@H]2CC(NCc2ccc(Cl)cc2)C3)c1Cl (some centres unmarked) [Example 4.12] | – | – | – | – | – | ≥ 80 | – |
| CCc1ncnc(N2C3CCC2CC(=NOc2ncccn2)C3)c1Cl [Example 5.2] | – | – | – | – | – | ≥ 80 | – |
| CCc1ncnc(N2C3CCC2CC(=NOCc2ccc4ccccc4c2)C3)c1Cl [Example 5.8] | – | ≥ 80 | – | ≥ 80 | ≥ 80 | – | – |
| CCc1ncnc(N2C3CCC2CC(=NOCc2cccc(C)c2)C3)c1Cl [Example 5.12] | ≥ 80 | ≥ 80 | – | ≥ 80 | ≥ 80 | – | – |
| CCc1ncnc(N2C3CCC2CC(=NOCC(=O)OC(C)(C)C)C3)c1Cl [Example 5.24] | – | – | – | – | ≥ 80 | ≥ 80 | – |
| CCc1ncnc(N2C3CCC2CC(=NOCc2ccc(C)c(C)c2)C3)c1Cl [Example 5.27] | – | ≥ 80 | – | ≥ 80 | ≥ 80 | – | – |
| CCc1ncnc(N2C3CCC2CC(=NOCc2ccccc2Cl)C3)c1Cl [Example 5.28] | ≥ 80 | ≥ 80 | – | ≥ 80 | ≥ 80 | – | – |
| CCc1ncnc(N2C3CCC2CC(=NOCc2ccccc2Br)C3)c1Cl [Example 5.31] | – | ≥ 80 | – | ≥ 80 | ≥ 80 | – | – |

| SMILES | pest or weed control at 2 ppm (Aedes aegypti) [%] | pest or weed control at 200 ppm [1] [%] | pest or weed control at 200 ppm (Pyricularia oryzae; [3]) [%] | pest or weed control at 200 ppm (Plutella xylostella) [%] | pest or weed control at 200 ppm [2] [%] | pest or weed control at 200 ppm (Phytophthora infestans) [%] | pest or weed control at 200 ppm (Pyricularia oryzae; read-out: control of fungal infection, Pyricularia oryzae (at least 80% list)) [%] |
| --- | --- | --- | --- | --- | --- | --- | --- |
| CCc1ncnc(N2C3CCC2CC(=NOCc2c(C)cc(C)cc2C)C3)c1Cl [Example 5.33] | – | – | – | ≥ 80 | ≥ 80 | – | – |
| CCc1ncnc(N2C3CCC2CC(=NOCc2c(Cl)cccc2Cl)C3)c1Cl [Example 5.34] | – | – | – | ≥ 80 | ≥ 80 | – | – |
| CCc1ncnc(N2C3CCC2CC(=NOCc2ccc(C)cc2C)C3)c1Cl [Example 5.36] | ≥ 80 | ≥ 80 | – | ≥ 80 | ≥ 80 | – | – |
| CCc1ncnc(N2C3CCC2CC(=NOCc2cccc(C#N)c2)C3)c1Cl [Example 5.44] | ≥ 80 | ≥ 80 | – | ≥ 80 | ≥ 80 | – | – |
| CCc1ncnc(N2C3CCC2CC(=NOCc2ccc(Cl)cc2Cl)C3)c1Cl [Example 5.50] | – | – | – | ≥ 80 | – | – | – |
| CCc1ncnc(N2C3CCC2CC(=NOCc2c(F)cccc2F)C3)c1Cl [Example 5.61] | ≥ 80 | ≥ 80 | ≥ 60 | ≥ 80 | ≥ 80 | – | – |
| CCc1ncnc(N2C3CCC2CC(=NOCc2ccccc2OC(F)F)C3)c1Cl [Example 5.68] | ≥ 80 | ≥ 80 | – | ≥ 80 | ≥ 80 | – | – |
| CCc1ncnc(N2C3CCC2CC(=NOCc2ccccc2C(F)(F)F)C3)c1Cl [Example 5.70] | ≥ 80 | ≥ 80 | – | ≥ 80 | ≥ 80 | – | – |
| CCc1ncnc(N2C3CCC2CC(=NOCc2cccc(C)c2F)C3)c1Cl [Example 5.74] | – | ≥ 80 | – | ≥ 80 | ≥ 80 | – | – |
| CCc1ncnc(N2C3CCC2CC(=NOCc2cccc(Cl)c2F)C3)c1Cl [Example 5.79] | – | ≥ 80 | – | ≥ 80 | ≥ 80 | – | – |
| CCc1ncnc(N2C3CCC2CC(=NOCc2ccc(OC)c(Cl)c2Cl)C3)c1Cl [Example 5.88] | ≥ 80 | ≥ 80 | – | ≥ 80 | ≥ 80 | – | ≥ 80 |
| COc1cccc(CON=C2CC3CCC(C2)N3c2ncnc3sccc23)c1 [Example 5.164] | ≥ 80 | ≥ 80 | – | ≥ 80 | ≥ 80 | – | – |
| c1ccc(-c2ccccc2CON=C2CC3CCC(C2)N3c2ncnc3sccc23)cc1 [Example 5.177] | – | – | – | – | – | ≥ 80 | – |
| FC(F)(F)c1cccc(CON=C2CC3CCC(C2)N3c2ncnc3sccc23)c1 [Example 5.187] | ≥ 80 | ≥ 80 | ≥ 60 | ≥ 80 | ≥ 80 | – | – |
| FC(F)(F)c1ccccc1CON=C1CC2CCC(C1)N2c1ncnc2sccc12 [Example 5.188] | ≥ 80 | ≥ 80 | ≥ 60 | ≥ 80 | ≥ 80 | – | – |
| FC(F)Oc1cccc(CON=C2CC3CCC(C2)N3c2ncnc3sccc23)c1 [Example 5.204] | ≥ 80 | ≥ 80 | ≥ 60 | ≥ 80 | ≥ 80 | – | – |
| Fc1cccc(Cl)c1CON=C1CC2CCC(C1)N2c1ncnc2sccc12 [Example 5.213] | ≥ 80 | ≥ 80 | – | ≥ 80 | ≥ 80 | – | – |
| Cc1cccc(CON=C2CC3CCC(C2)N3c2ncnc3sccc23)c1F [Example 5.223] | ≥ 80 | ≥ 80 | – | ≥ 80 | ≥ 80 | – | – |
